{"source": "patent US20260085082A1", "about": "“KDM1A INHIBITORS FOR THE TREATMENT OF DISEASE” (Imago Biosciences, Inc., priority 2022, published 2026)", "key": {"LSD1": {"target": "LSD1 (Homo sapiens, UniProt O60341)", "experiment": "LSD1 10-dose IC50 fluorescence coupling enzyme assay (HRP/Amplex Red, resorufin)", "type": "biochemical", "details": "10 M histone H3(1-21)K4me2 peptide substrate; 3-fold serial dilution in duplicate starting at 100 μM", "description": "Compounds were tested in a 10-dose IC50 mode fluorescence coupling enzyme assay with 3-fold serial dilution in duplicate starting at 100 μM. The production of FAD-dependent H2O2 as a result of demethylase activity of LSD1 on […] histone H3(1-21)K4me2 peptide substrate was measured by coupling with HRP and Amplex Red to yield resorufin (fluorescence measured at Ex/Em=535/590 nm on EnVision, Perkin Elmer)."}, "MV4;11 cells": {"tested_on": "MV4;11 cells", "experiment": "Cell Titer-Glo Luminescent Cell Viability Assay, cell growth inhibition against MV4;11 cells", "type": "cell-based", "details": "Homo sapiens, MV4-11, 120 h, MV4;11 cells, Day 5, 10-point dose curve 0 to 50 μM; read-out: Cell Titer Glo IC50 (5 d)", "procedure,_shortened": "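MV4;11 cells seeded at 3750/well, exposed to a 10-point 4-fold dilution series (0–50 μM); on Day 5 cells were split into fresh compound and media and grown to Day 10. Viability by CellTiter-Glo ATP luminescence at Day 5 and Day 10; IC50 from dose curves.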"}}}
{"smiles": "COc1ccc(-n2cc(C(=O)N3CCCC(N)C3)c(-c3ccc(C#N)cc3)n2)cc1", "note": "(stereo not drawn) [Example 87, 4-(4-(3-aminopiperidine-1-carbonyl)-1-(4-methoxyphenyl)-1H-pyrazol-3-yl)benzonitrile]", "values": [{"measurement": "IC50", "setting": "LSD1", "value": "> 10", "unit": "µM"}, {"measurement": "IC50", "setting": "MV4;11 cells", "value": "> 10", "unit": "µM"}]}
{"smiles": "COc1ccc(-n2ncc(C(=O)N3CCCC(N)C3)c2-c2ccc(C#N)cc2)cc1", "note": "(stereo not drawn) [Example 88, 4-(4-(3-aminopiperidine-1-carbonyl)-1-(4-methoxyphenyl)-1H-pyrazol-5-yl)benzonitrile]", "values": [{"measurement": "IC50", "setting": "LSD1", "value": "> 10", "unit": "µM"}, {"measurement": "IC50", "setting": "MV4;11 cells", "value": "> 10", "unit": "µM"}]}
{"smiles": "COc1ccc(-n2nc(NC(=O)[C@@H]3CCC[C@@H](N)C3)cc2-c2ccc(C#N)c(F)c2)cc1", "note": "[Example 89, (1R,3R)-3-amino-N-(5-(4-cyano-3-fluorophenyl)-1-(4-methoxyphenyl)-1H-pyrazol-3-yl)cyclohexane-1-carboxamide 2,2,2-trifluoroacetate]", "values": [{"measurement": "IC50", "setting": "LSD1", "value": "< 0.5", "unit": "µM"}, {"measurement": "IC50", "setting": "MV4;11 cells", "value": "1 to 10", "unit": "µM"}]}
{"smiles": "COc1ccc(-n2nc(NC(=O)[C@H]3CCC[C@H](N)C3)cc2-c2ccc(C#N)c(F)c2)cc1", "note": "[Example 90, (1S,3S)-3-amino-N-(5-(4-cyano-3-fluorophenyl)-1-(4-methoxyphenyl)-1H-pyrazol-3-yl)cyclohexane-1-carboxamide 2,2,2-trifluoroacetate]", "values": [{"measurement": "IC50", "setting": "LSD1", "value": "< 0.5", "unit": "µM"}, {"measurement": "IC50", "setting": "MV4;11 cells", "value": "1 to 10", "unit": "µM"}]}
{"smiles": "COc1ccc(-n2nc(NC(=O)[C@H]3CC[C@H](N)CC3)cc2-c2ccc(C#N)c(F)c2)cc1", "note": "[Example 91, (1R,4R)-4-Amino-N-(5-(4-cyano-3-fluorophenyl)-1-(4-methoxyphenyl)-1H-pyrazol-3-yl)cyclohexane-1-carboxamide 2,2,2-trifluoroacetate]", "values": [{"measurement": "IC50", "setting": "LSD1", "value": "1 to 10", "unit": "µM"}, {"measurement": "IC50", "setting": "MV4;11 cells", "value": "1 to 10", "unit": "µM"}]}
{"smiles": "COc1ccc(-n2nc(NC(=O)C3CCNCC3)cc2-c2ccc(C#N)c(F)c2)cc1", "note": "[Example 92, N-(5-(4-cyano-3-fluorophenyl)-1-(4-methoxyphenyl)-1H-pyrazol-3-yl)piperidine-4-carboxamide 2,2,2-trifluoroacetate]", "values": [{"measurement": "IC50", "setting": "LSD1", "value": "0.5 to 1", "unit": "µM"}, {"measurement": "IC50", "setting": "MV4;11 cells", "value": "1 to 10", "unit": "µM"}]}
{"smiles": "COc1ccc(-n2nc(NC(=O)C3CCNC3)cc2-c2ccc(C#N)c(F)c2)cc1", "note": "(stereo not drawn) [Example 93, N-(5-(4-cyano-3-fluorophenyl)-1-(4-methoxyphenyl)-1H-pyrazol-3-yl)pyrrolidine-3-carboxamide 2,2,2-trifluoroacetate]", "values": [{"measurement": "IC50", "setting": "LSD1", "value": "< 0.5", "unit": "µM"}, {"measurement": "IC50", "setting": "MV4;11 cells", "value": "1 to 10", "unit": "µM"}]}
{"smiles": "COc1ccc(-n2nc(NC(=O)[C@@H]3CCNC3)cc2-c2ccc(C#N)c(F)c2)cc1", "note": "[Example 94, (R)-N-(5-(4-cyano-3-fluorophenyl)-1-(4-methoxyphenyl)-1H-pyrazol-3-yl)pyrrolidine-3-carboxamide 2,2,2-trifluoroacetate]", "values": [{"measurement": "IC50", "setting": "LSD1", "value": "< 0.5", "unit": "µM"}, {"measurement": "IC50", "setting": "MV4;11 cells", "value": "1 to 10", "unit": "µM"}]}
{"smiles": "COc1ccc(-n2nc(NC(=O)[C@H]3CCNC3)cc2-c2ccc(C#N)c(F)c2)cc1", "note": "[Example 95, (S)-N-(5-(4-cyano-3-fluorophenyl)-1-(4-methoxyphenyl)-1H-pyrazol-3-yl)pyrrolidine-3-carboxamide 2,2,2-trifluoroacetate]", "values": [{"measurement": "IC50", "setting": "LSD1", "value": "< 0.5", "unit": "µM"}, {"measurement": "IC50", "setting": "MV4;11 cells", "value": "1 to 10", "unit": "µM"}]}
